{"source": "patent US5397780A", "about": "“Pyrroloazepine derivative” (Suntory Limited, priority 1993, dated 1995)", "key": {"serotonin (5-HT)": {"system": "serotonin (5-HT)", "assay": "Anti-serotonin (anti-5-HT) action: serotonin-induced contraction of guinea pig superior mesenteric artery", "set-up": "species or system Hartley male guinea pig", "settings": "contraction by 10^-5 M serotonin = 100%", "experimental": "(§1) With respect to certain compounds of the present invention, their anti-α1 action and anti-serotonin (5-HT) action were investigated by the testing methods which will be described below.\nA sample cut in a helical form was suspended under 0.3 g load in a Magnus cylinder filled with the Tyrode solution of 37° C. which had been saturated with a mixed gas consisting of 95% O2 +5% CO2. Using an isometric transducer (\"UL-10\"/SHINKOH K.K.) and a pressure preamplifier (\"DSA-605A\"/SHINKOH K.K.), variations in tension were measured. The measurement results were recorded on a pen-writing recorder (\"VP-6537A\"/NATIONAL K.K.). Taking the contraction induced by 10^-5 M serotonin (5-HT) as 100% the percent contractions in the presence of each test drug at 10^-7 and 10^-6 M were determined as anti-5-HT action."}, "α1": {"system": "α1", "assay": "Anti-α1 action: norepinephrine-induced tonic contraction of guinea pig thoracic aorta", "set-up": "species or system Hartley male guinea pig", "settings": "contraction by 10^-5 M norepinephrine = 100%", "experimental": "as §1\nThe thoracic aorta of each Hartley male guinea pig (body weight: 300-500 g) was excised. A sample cut in a helical form was suspended under 1 g load in a Magnus cylinder filled with the Tyrode solution of 37° C. which had been saturated with a mixed gas consisting of 95% O2 +5% CO2. Using an isometric transducer (\"TB-612J\"/NIHON KOHDEN) and a pressure preamplifier (\"AP-620G\"/NIHON KOHDEN), variations in tension were measured. The measurement results were recorded on a thermal pen-writing recorder (\"WT-647G\"/NIHON KOHDEN).\nTaking the tonic contraction induced by 10^-5 M norepinephrine (NE) as 100% the percent contractions upon addition of each test drug at 10^-8 and 10^-7 M were determined as anti-α1 action."}}, "data": [{"smiles": "O=C1CCN(Cc2ccccc2)C(=O)c2c1ccn2CCCCCN1CCN(c2ccccc2)CC1", "note": "[Compound No. 20, 7-Benzyl-1-[5-(4-phenylpiperazin-1-yl)pentyl]6,7-dihydropyrrolo[2,3-c]azepine-4,8(1H,5H)-dione]", "values": [{"measurement": "Anti 5-HT action (% of Control), percent contraction", "setting": "serotonin (5-HT); test drug 10^-6 M, 1 µM", "result": "45.7 % of Control"}, {"measurement": "Anti 5-HT action (% of Control), percent contraction", "setting": "serotonin (5-HT); test drug 10^-7 M, 0.1 µM", "result": "54.5 % of Control"}, {"measurement": "Anti α1 action (% of Control), percent contraction", "setting": "α1; test drug 10^-7 M, 0.1 µM", "result": "19.9 % of Control"}, {"measurement": "Anti α1 action (% of Control), percent contraction", "setting": "α1; test drug 10^-8 M, 0.01 µM", "result": "49.2 % of Control"}]}, {"smiles": "CN1CCC(O)c2ccn(CCCCN3CCN(c4ccccc4)CC3)c2C1=O", "note": "(stereo not drawn) [Compound No. 24, 4-hydroxy-7-methyl-1-[4-(4-phenylpiperazin-1-yl)butyl]-4,5,6,7-tetrahydropyrrolo[2,3-c]azepin-8(1H)-one]", "values": [{"measurement": "Anti 5-HT action (% of Control), percent contraction", "setting": "serotonin (5-HT); test drug 10^-6 M, 1 µM", "result": "36.0 % of Control"}, {"measurement": "Anti 5-HT action (% of Control), percent contraction", "setting": "serotonin (5-HT); test drug 10^-7 M, 0.1 µM", "result": "78.3 % of Control"}, {"measurement": "Anti α1 action (% of Control), percent contraction", "setting": "α1; test drug 10^-7 M, 0.1 µM", "result": "41.0 % of Control"}, {"measurement": "Anti α1 action (% of Control), percent contraction", "setting": "α1; test drug 10^-8 M, 0.01 µM", "result": "90.3 % of Control"}]}, {"smiles": "CN1CCC(=NO)c2ccn(CCCCN3CCN(c4ccccc4)CC3)c2C1=O", "note": "[Compound No. 27, 4-Hydroxyimino-7-methyl-1-[4-(4-phenylpiperazin-1-yl)butyl]-4,5,6,7-tetrahydropyrrolo[2,3-c]azepin-8(1H)-one]", "values": [{"measurement": "Anti 5-HT action (% of Control), percent contraction", "setting": "serotonin (5-HT); test drug 10^-6 M, 1 µM", "result": "25.7 % of Control"}, {"measurement": "Anti 5-HT action (% of Control), percent contraction", "setting": "serotonin (5-HT); test drug 10^-7 M, 0.1 µM", "result": "69.8 % of Control"}, {"measurement": "Anti α1 action (% of Control), percent contraction", "setting": "α1; test drug 10^-7 M, 0.1 µM", "result": "18.4 % of Control"}, {"measurement": "Anti α1 action (% of Control), percent contraction", "setting": "α1; test drug 10^-8 M, 0.01 µM", "result": "74.2 % of Control"}]}, {"smiles": "CN1CCC(=NO)c2ccn(CCCCN3CCN(c4ccc(F)cc4)CC3)c2C1=O", "note": "[Compound No. 29, 4-Hydroxyimino-7-methyl-1-[4-[4-(4-fluorophenyl)piperazin-1-yl]butyl]-4,5,6,7-tetrahydropyrrolo[2,3-c]azepin-8(1H)-one]", "values": [{"measurement": "Anti 5-HT action (% of Control), percent contraction", "setting": "serotonin (5-HT); test drug 10^-6 M, 1 µM", "result": "12.0 % of Control"}, {"measurement": "Anti 5-HT action (% of Control), percent contraction", "setting": "serotonin (5-HT); test drug 10^-7 M, 0.1 µM", "result": "66.2 % of Control"}, {"measurement": "Anti α1 action (% of Control), percent contraction", "setting": "α1; test drug 10^-7 M, 0.1 µM", "result": "39.5 % of Control"}, {"measurement": "Anti α1 action (% of Control), percent contraction", "setting": "α1; test drug 10^-8 M, 0.01 µM", "result": "94.2 % of Control"}]}, {"smiles": "CN1CCC(=NO)c2ccn(CCCCN3CCN(c4cccc(Cl)c4)CC3)c2C1=O", "note": "[Compound No. 31, 1-[4-[4-(3-Chlorophenyl)piperazin-1-yl]butyl]-4-hydroxyimino-7-methyl-4,5,6,7-tetrahydropyrrolo[2,3-c]azepin-8(1H)-one]", "values": [{"measurement": "Anti 5-HT action (% of Control), percent contraction", "setting": "serotonin (5-HT); test drug 10^-6 M, 1 µM", "result": "69.0 % of Control"}, {"measurement": "Anti 5-HT action (% of Control), percent contraction", "setting": "serotonin (5-HT); test drug 10^-7 M, 0.1 µM", "result": "86.2 % of Control"}, {"measurement": "Anti α1 action (% of Control), percent contraction", "setting": "α1; test drug 10^-7 M, 0.1 µM", "result": "19.4 % of Control"}, {"measurement": "Anti α1 action (% of Control), percent contraction", "setting": "α1; test drug 10^-8 M, 0.01 µM", "result": "93.9 % of Control"}]}, {"smiles": "COc1ccccc1N1CCN(CCCCCn2ccc3c2C(=O)N(Cc2ccccc2)CCC3=O)CC1", "note": "[Compound No. 36, 7-Benzyl-1-[5-[4-(2-methoxyphenyl)piperazin-1-yl]pentyl]-6,7-dihydropyrrolo[2,3-c]azepine-4,8(1H,5H)-dione]", "values": [{"measurement": "Anti 5-HT action (% of Control), percent contraction", "setting": "serotonin (5-HT); test drug 10^-6 M, 1 µM", "result": "61.8 % of Control"}, {"measurement": "Anti 5-HT action (% of Control), percent contraction", "setting": "serotonin (5-HT); test drug 10^-7 M, 0.1 µM", "result": "84.0 % of Control"}, {"measurement": "Anti α1 action (% of Control), percent contraction", "setting": "α1; test drug 10^-7 M, 0.1 µM", "result": "21.4 % of Control"}, {"measurement": "Anti α1 action (% of Control), percent contraction", "setting": "α1; test drug 10^-8 M, 0.01 µM", "result": "43.6 % of Control"}]}]}
